Measured values as given in patent US6716596B2, “Agents for replacement of NAD+/NADH system in enzymatic reactions” (The Regents of the University of California, priority 2001, dated 2004).
Where a name gives a salt, the structure may show the parent alone.

Columns and labels:
[1] = UV-vis kinetics of the regioselective reduction with rhodium catalyst precursor (2) and formate; settings: for kcat rate constant for catalysis / r1 initial rate: [2] 2.725 × 10^−5 M, 299° K
Text: The kinetics of the regioselective reduction reactions were further studied utilizing UV-vis techniques with the two biomimic compounds (1) and (6) and the results were compared to NAD^+ itself. Experimental conditions are described in Example 9.
The effect of the initial rate (ri) at low conversions to the 1,4-dihydro product (˜10%) was ascertained by varying the amount of substrate precatalyst (2) and sodium formate concentrations.
The initial rates (ri) of formation of compound (3) were obtained from plots of concentration (absorbance at 354 nm/ε) versus time at low conversions (˜10%). The values of kcat were calculated at 299° K.
Rates were obtained via UV-vis techniques and are an average of two runs.
This example describes studies producing kinetic and thermodynamic data for 1-benzylnicotinamide triflate (1a) performed in THF/H2O, 1:1, β-nicotinamide -5′-ribose methyl phosphate (6) H2O, pH=6.5, and NAD^+ performed in the regioselective reduction with [Cp*Rh(bpy)H2O)][OTf]2, 2 and in the presence of formate ion.
The kinetic experiments were carried out on a Hewlett Packard 8452A Diode Array Uv-Vis spectrophotometer, attached to a circulating water bath (VWR 1160). For experiments conducted at different temperatures, the circulating water bath, as well as the UV-vis instrument, were warmed up for at least an 1 hour before the kinic studies were initiated.
The 1-benzylnicotinamide triflate (1a) [CP*Rh(bpy)(H2O)][OTf]2 (2) and 1-benzyl-1,4 dihydronicotinamide (3) were synthesized by methods as described in Examples 2, 4 and 7. The NAD^+ and 1,4-NADH compounds were purchased from Sigma and used as received. The THF was distilled from Na and deoxygenate with N2 gas for 1 hour. Distilled water was purchased from Aldrich Chemical Co and deoxygenate prior to being used. A solution of THF/H2O (similar for 1:1 or 1:4 ratios) was used for all the kinetic experiments performed for compounds of 1-benzylnicotinamide type, unless otherwise specified. A stock solution of biomimic (1a) (0.018 M), 2 (6.23×10^−3 M), and sodium formate (0.25 M) were made for the kinetic experiments in THF/H2O (1:1).
A solution of 1-benzylnicotinamide triflate (1a), (4.29×10^−3 M) and sodium formate (0.0539) was made in a volumetric flask (10 mL) under N2 in a THF/H2O (1:1) mixture. The different concentration of biomimic (1a) and sodium formate used for the kinetic experiments are reported above.
A 3.0 mL aliquot of this solution was transferred to a thermostated UV-vis cell by using an air-free syringe, which was also purged with N2 gas. The sample was then brought to the desired temperature for 30-60 min in the UV-vis spectrophotometer thermostated cell holder. Then, 23 μL of a 6.23×10^−3 M stock solution of [CP*Rh(bpy)(H2O)^2+ (2), was added-by syringe under a positive N2 pressure, quickly mixed with the solution, and the absorbance increase at 354 nm was immediately recorded. The experiment was carried out for 2 hours and the formation of the product, 1-benzyl-1,4-dihydronicotinamide, (3) was followed, with the change in absorbance being recorded every 90 seconds. Some kinetic experiments were carried out until all the starting material was converted to product. The induced volume change was taken into account for the calculation of the turnover frequency (TOF).
The kinetic experiments for the β-nicotinamide-5′-ribose methyl phosphate (6) and natural NAD^+ were performed using the same general procedure described above. These kinetic experiments were carried out in H2O and the concentration of β-nicotinamide-5′-ribose methyl phosphate (6) or NAD^+, sodium formate, and [Cp*Rh(bpy)(H2O)]^2+ (2), were in the order of 1.50×10^−3, 0.0186 M, and 1.42×10^−5 M, respectively. The λmax for the β-nicotinamide-5′-ribose methyl phosphate, (6), and natural NAD^+ was 336 nm. In all the initial rate plots, time =0 s was removed from the plots of Concentration versus Time. The standard deviation of the ri were calculated from 2σ values.

[2] = competitive regioselective substrate reduction experiments with rhodium catalyst precursor (2)
Procedure: In order to establish whether the σ-donating ability or the electron-withdrawing effect of the 3-substituent of the 1-benzylnicotinamide was the important parameter, several competitive substrate reduction experiments were performed.
For this purpose, the compound (1a) 1-benzylnicotinamide, was reduced with rhodium catalyst precursor (2) in the presence of its alternatively substituted derivatives, compounds (1e), substituted with —C(O)—CH3, (1g), substituted with (—CN), (1d), substituted with —C(S)NH2 or (1f), substituted with —C(O)OCH3, and their competitive reduction was determined.

[3] = [1a] 1.07 × 10^−3 M, HCO2Na 0.03266 M, 1:1 H2O/THF
[4] = [1a] 1.61 × 10^−3 M, HCO2Na 0.03260 M, 1:1 H2O/THF
[5] = [1a] 2.68 × 10^−3 M, HCO2Na 0.03266 M, 1:1 H2O/THF
[6] = [1a] 2.68 × 10^−4 M, HCO2Na 0.03266 M, 1:1 H2O/THF
[7] = [1a] 5.37 × 10^−4 M, HCO2Na 0.03259 M, 1:1 H2O/THF

With `NC(=O)c1ccc[n+](Cc2ccccc2)c1` [Compound 1a, 1-Benzylnicotinamide, Triflate Salt] the TOF ([1]; 294° K, 1:1 H2O/THF, substrate 4.29 × 10^−3 M) was 2 h⁻¹, the ri initial rate ([1]; 294° K, 1:1 H2O/THF, substrate 4.29 × 10^−3 M, HCO2Na 5.39 × 10^−2 M, (2) 4.33 × 10^−5 M) was 1.23e-08 M/s and the TOF ([1]; H2O/THF 1:1, 1a 4.29 × 10^−3 M) was 2 h⁻¹. It also gave a ri initial rate ([1]; H2O/THF 1:1, 1a 4.29 × 10^−3 M, HCO2Na 5.39 × 10^−2 M, (2) 4.33 × 10^−5 M) of 1.23e-08 M/s, a TOF ([1]; H2O/THF 4:1, 1a 1.68 × 10^−3 M) of 10 h⁻¹ and a ri initial rate ([1]; H2O/THF 4:1, 1a 1.68 × 10^−3 M, HCO2Na 1.79 × 10^−3 M, (2) 1.71 × 10^−5 M) of 4.31e-08 M/s. The TOF ([1]; H2O/THF 4:1, 1a 4.82 × 10^−3 M) was 13 h⁻¹, the ri initial rate ([1]; H2O/THF 4:1, 1a 4.82 × 10^−3 M, HCO2Na 5.52 × 10^−2 M, (2) 4.83 × 10^−5 M) was 1.75e-07 M/s and the “increase in initial rate of formation of the 1,4-dihydro derivative (3a), factor” value ([1]; THF/H2O from 1:1 to 1:4, comparable concentrations) was > 6. The “kcat rate constant for catalysis” value [1, 3] was 12.61 M^−2s^−1, the r1 initial rate [1, 3] was 1.2e-08 M/s and the “kcat rate constant for catalysis” value [1, 4] was 14.03 M^−2s^−1. The r1 initial rate [1, 4] was 2.01e-08 M/s, the “kcat rate constant for catalysis” value [1, 5] was 14.38 M^−2s^−1 and the r1 initial rate [1, 5] was 3.43e-08 M/s. The “kcat rate constant for catalysis” value [1, 6] was 8.85 M^−2s^−1, the r1 initial rate [1, 6] was 2.1e-09 M/s and the “kcat rate constant for catalysis” value [1, 7] was 13.02 M^−2s^−1. The r1 initial rate [1, 7] was 6.3e-09 M/s, the “times faster than the —C(O)CH3 analog (1e)” value ([2]; competitive reduction of (1a) with (1e)) was 1.1 times and the “times faster than the —CN analog (1g)” value ([2]; competitive reduction of (1a) with (1g)) was 1.3 times.
